Results: PMC7376443 (Bioorganic & medicinal chemistry letters, 2020)

What was measured:
Format in all cases: biochemical
[1] = molecular target: T1, ChTS-DHFR (thymidylate synthase-dihydrofolate reductase), TS activity (Cryptosporidium hominis, UniProt A0A0S4TER9); assay: radiolabeled CH2H4F to H2F turnover by HPLC, single concentration […]
[2] = molecular target: T1, ChTS-DHFR (thymidylate synthase-dihydrofolate reductase), TS activity
[3] = molecular target: human TS (thymidylate synthase, hTS) (Homo sapiens, UniProt P04818); assay: TS activity assay, enzyme preincubated with compound without dUMP, […]
human TS (thymidylate synthase, hTS), sequence (P04818 2-313): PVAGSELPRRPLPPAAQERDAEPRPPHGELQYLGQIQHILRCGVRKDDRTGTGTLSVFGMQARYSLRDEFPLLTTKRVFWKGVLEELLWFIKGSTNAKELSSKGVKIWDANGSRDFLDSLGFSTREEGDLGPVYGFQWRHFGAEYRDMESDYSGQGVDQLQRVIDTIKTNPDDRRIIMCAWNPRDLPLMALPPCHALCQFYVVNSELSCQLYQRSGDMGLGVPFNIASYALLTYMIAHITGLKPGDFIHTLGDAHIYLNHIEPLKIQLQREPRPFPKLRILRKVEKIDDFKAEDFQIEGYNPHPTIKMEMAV

Row | Substance | % Inhibition of ChTS Activity at 500 μM [1] | IC50 [2] [µM] | % inhibition at 500 uM [3]
1 | CD 11057 [compound 7] | 46.0 ± 0.8 | – | –
2 | HTS 00967 [compound 10] | 55 ± 1 | – | –
3 | HTS 03850 [compound 2] | 76 ± 9 | – | –
4 | HTS 00950 [compound 6] | – | 172 ± 11 | ~ 50
